Key:
[1] = Stability test of ED-71: HPLC quantitative assay (survivability); type: physicochemical
Description: (§1) Amorphous and crystalline ED-71 compounds were tested for stability at 10, 25 and […]. To estimate the stability, HPLC quantitative assay and absorbance and purity measurements were utilized. The purity was expressed as peak area ratio in percentage in HPLC (% P.A.R.). The test was carried out by using the following procedures:
(§2) About 2 mg portions of each of the amorphous and crystalline samples are precisely weighed into transparent 10 ml test tubes each having screw cap, individually.
(§3) The test tubes are purged with argon using a vacuum desiccator and a glove box. This purging procedure is not applied to the test tubes indicated as “1 M (air)” in the tables below.
(§4) The test tubes in groups are fixed in thermostatic baths which are respectively controlled at the above temperatures and allowed to stand in the dark. After one (1 W) or two (2 W) weeks or one month (1 M), the test tubes are removed from the baths and subjected to the following assay and measurements:
5 ml of absolute ethanol is precisely added to the test tube to form a sample solution. 1 ml of the sample solution and 1 ml of an internal standard solution are both precisely added to another test tube and the resulting mixture is diluted with methylene chloride to give a whole volume of 20 ml. This diluted solution is designated solution 1. The internal standard solution is formed by dissolving 2-aminopyrimidine in methanol to a concentration of 0.6 mg/ml.
Next, both of 1 ml of another standard solution for quantitative assay which is formed by dissolving crystalline ED-71 in absolute ethanol to a concentration of 0.4 mg/ml and 1 ml of the internal standard solution are precisely added to another test tube and the resulting mixture is diluted with methylene chloride to give a whole volume of 20 ml. This diluted solution is designated solution 2.
HPLC is carried out using 20 μl of each of solutions 1 and 2. For each solution, an area ratio of the peak of ED-71 to the peak of the internal standard substance is determined from the HPLC data. The ED-71 content in the sample is determined from the ratio of the area ratio for solution 1 to that for solution 2.
Survivability (%) is determined by dividing the ED-71 content thus obtained by ED-71 content in the same sample but prior to the above treatment. • HPLC conditions used: • Column: YMC A-004SIL (4.6×300 mm) • Mobile phase: methylene chloride/methanol mixture (95/5) • Flow rate: 1 ml/min • Detection: at UV 265 nm. (3) Absorbance Measurement

[2] = Stability of ED-71 crystalline compound, overall conclusion; type: physicochemical; details: up to 2 weeks at 25° C. and 40° C.
Description: as §1, §2, §3, §4
The values of the HPLC quantitative assay and the purity measurement are averaged over two runs.

SMILES | HPLC Quantitative Assay (% Survivability) ([1]; 10° C., 1 M (air), dark) | HPLC Quantitative Assay (% Survivability) ([1]; 10° C., 1 M, argon, dark) | HPLC Quantitative Assay (% Survivability) ([1]; 10° C., 2 W, argon, dark) | HPLC Quantitative Assay (% Survivability) ([1]; 10° C., time 0) | HPLC Quantitative Assay (% Survivability) ([1]; 25° C., 1 W, argon, dark) | HPLC Quantitative Assay (% Survivability) ([1]; 25° C., 2 W, argon, dark) | HPLC Quantitative Assay (% Survivability) ([1]; 25° C., time 0) | HPLC Quantitative Assay (% Survivability) ([1]; 40° C., 1 W, argon, dark) | HPLC Quantitative Assay (% Survivability) ([1]; 40° C., 2 W, argon, dark) | HPLC Quantitative Assay (% Survivability) ([1]; 40° C., time 0) | stability compared with the amorphous form [2]
C=C1/C(=C\C=C2/CCC[C@@]3(C)C2CC[C@@H]3[C@H](C)CCCC(C)(C)O)C[C@@H](O)[C@@H](OCCCO)[C@@H]1O (stereo partly drawn) [Amor., 1α,25-dihydroxy-2β-(3-hydroxypropoxy)vitamin D3] | 97.4% | 94.8% | 98.5% | 100% | 99.5% | 94.7% | 100% | 99.4% | 88.8% | 100% | –
C=C1/C(=C\C=C2/CCC[C@]3(C)[C@@H]([C@H](C)CCCC(C)(C)O)CC[C@@H]23)C[C@@H](O)[C@@H](OCCCO)[C@@H]1O [Crys., 1α,25-dihydroxy-2β-(3-hydroxypropoxy)vitamin D3] | 95.0% | 97.0% | 96.8% | 100% | 99.4% | 98.8% | 100% | 99.5% | 102.9% | 100% | higher stability
